In test [1] the test system is A549 human lung cancer cells. As to the kind of experiment: Annexin V / propidium iodide staining (Example 84). In kind it is cell-based. The note with it: 1.2 μM, 38 hours. On the procedure:
A549 human lung cancer cells in a 96-well plate (Costar 3603, 5,000/well) were treated with either A) DMSO as a control; B) 1.2 μM (−)-trans-3-(5,6-dihydro-4H-pyrrolo[3,2,1-ij]quinolin-1-yl)-4(1H-indol-3-yl)pyrrolidine-2,5-dione for 38 hours before addition of 1:200 fluorescent Annexin V (green) and 1:500 Propidium iodide (magenta, final concentration of 1 μg/mL). The labeling procedure was allowed to process at 37° C. for 20 minutes followed by image acquisition and analysis using an IC100 Image Cytometer (Beckman Coulter, Inc) with 10× amplification.
To determine whether (−)-trans-3-(5,6-dihydro-4H-pyrrolo[3,2,1-ij]quinolin-1-yl)-4(1H-indol-3-yl)pyrrolidine-2,5-dione works primarily through a cytostatic or apoptotic mechanism, cancer cells exposed to (−)-trans-3-(5,6-dihydro-4H-pyrrolo[3,2,1-ij]quinolin-1-yl)-4(1H-indol-3-yl) pyrrolidine-2,5-dione were stained with fluorescently labeled Annexin V (green fluorescence) and propidium iodide (bright magenta fluorescence). Annexin V is a well-validated reagent that specifically binds with high affinity to externalized membrane phosphatidylserine, an early marker of the onset of apoptosis, while propidium iodide is a marker for dead cells. […] (See FIG. 8)

Test [2] deals with MDA-MB-231 cells. As to the kind of experiment: Colony counting, surviving fraction (Example 78). In kind it is cell-based, human. As to conditions: Homo sapiens, MDA-MB-231; two days incubation, colonies counted two weeks later; read-out: IC50 (surviving fraction equaled 50). The procedure:
MDA-MB-231 cells (ATCC# HTB-26), grown in DMEM plus 15% heat inactivated fetal bovine serum plus 10 mM HEPES pH 7.5, were plated in 60 mm plates (2×10^5 cells per plate). After two days candidate compounds in DMSO at various concentrations were diluted in media and added to individual plates such that the final DMSO concentration in the cell culture media was 0.1%. After two days incubation the culture was trypsinized, cells were washed with media, counted using a hemocytometer and 500 cells, including cell bodies, were plated in […] in media. Two weeks later the media was removed and the cell colonies were fixed with methanol for 10 minutes, stained with 1% crystal violet 10 minutes, washed with water and air dried. Cell colonies were visually counted when there were greater then 50 cells present per colony. Plating efficiency was defined as the average number of colonies formed divided by 500. The surviving fraction was defined as the plating efficiency of a candidate compound divided by the plating efficiency of DMSO multiplied by 100. For candidate compound titrations, the IC50 concentration was determined by fitting the equation y=AeBx to the data points and extrapolating the concentration where surviving fraction equaled 50. […]

The test system of test [3] is MDA-MB-231 cells. As to the kind of experiment: Cancer cell invasion assay with inserts (Example 85). In kind it is cell-based. As to conditions: Homo sapiens, 24 hours pretreatment, 24 hours invasion, read-out: estimated IC50, invasive phenotype. The procedure: MDA-MB-231 cells were pretreated with indicated concentrations of (−)-trans-3-(5,6-dihydro-4H-pyrrolo[3,2,1-ij]quinolin-1-yl)-4(1H-indol-3-yl)pyrrolidine-2,5-dione for 24 hours. 300 μl of each cell suspension (at a concentration 0.5×10^6 cells/mL in serum free medium) was placed in individual inserts and incubated for 24 hours at 37° C. The bottom wells housing the inserts contained 500 μl of 10% FBS medium. […] Each insert was then transferred to a clean well containing cell stain solution and incubated for 10 minutes at room temperature. The bottom of the insert was destained by incubating in extraction solution and OD was measured at 560 nm. (−)-trans-3-(5,6-dihydro-4H-pyrrolo[3,2,1-ij]quinolin-1-yl)-4(1H-indol-3-yl) pyrrolidine-2,5-dione inhibited the migration across interstices in confluent cultures of MDA-MB-231 cancer cells. The data represent the mean of two independent experiments. (See FIG. 9)

Test [4] relates to H441. As to the kind of experiment: Colony formation assay (CFA). In kind it is cell-based. As to conditions: Homo sapiens, NCI-H441; H441, 24 hours exposure, colonies after 14-21 days; read-out: (−)-trans IC50 CFA. The procedure:
(§1) To determine c-met inhibition, exponentially growing MCF-7 and MDA-MB-231 human breast cancer cells, DLD1 and HT29 human colon cancer cells, PACA2 and PANC-1 human pancreatic cancer cells and NCI-H441 human non-small cell lung cancer cells (H441) were serum starved in 0.5% FBS and treated with increasing amounts of (−)-trans-3-(5,6-dihydro-4H-pyrrolo [3,2,1-ij]quinolin-1-yl)-4(1H-indol-3-yl)pyrrolidine-2,5-dione for 24 hours as indicated. Cells were then left unstimulated or stimulated with 100 ng/mL HGF for 10 minutes and whole cell extracts were prepared. Whole cell lysates (50 μg) were resolved by SDS-PAGE, transferred onto a PVDF membrane, and an enhanced chemiluminescence assay system (ECL) was used to determine the phosphorylation status of c-Met. A polyclonal antibody against phospho (Y1349) c-Met (phospho-c-Met) was obtained from Biosource International and a monoclonal antibody against β-actin was purchased from Invitrogen. Percent inhibition was determined by densitometry using the Scion Image For colony formation assays (CFA), exponentially growing cells were seeded at 2,000 cells per well in 6-well plates and allowed to attach for 24 hours. Increasing concentrations of (−)-trans-3-(5,6-dihydro-4H-pyrrolo[3,2,1-ij]quinolin-1-yl)-4(1H-indol-3-yl)pyrrolidine-2,5-dione (from 0.01 to 30 μM) were then added to the media for another 24 hours. After 24 hours exposure, the drug was removed and fresh media was added for the next 14-21 days, allowing for colony formation. Cells were fixed and stained with GEMSA (Gibco BRL). Colonies of greater than 50 cells were scored as survivors and percentage of cell survival was plotted to determine the IC50. […] The IC50 of (−)-trans-3-(5,6-dihydro-4H-pyrrolo[3,2,1-ij]quinolin-1-yl)-4(1H-indol-3-yl) pyrrolidine-2,5-dione for c-Met expressing solid tumor types is in the 0.1-0.7 μM range following exposure to (−)-trans-3-(5,6-dihydro-4H-pyrrolo[3,2,1-ij]quinolin-1-yl)-4(1H-indol-3-yl)pyrrolidine-2,5-dione for 24 hours, as determined by colony formation assay (CFA).

For test [5], the system named is H446. Put plainly: Colony formation assay (CFA). As to conditions: Homo sapiens, NCI-H446; H446, 24 hours exposure, colonies after 14-21 days; read-out: (−)-trans IC50 CFA. In kind it is cell-based. On the procedure: as §1
The subject of test [6] is MCF-7. Put plainly: Colony formation assay (CFA). The note with it: Homo sapiens, MCF7; MCF-7, 24 hours exposure, colonies after 14-21 days; read-out: (−)-trans IC50 CFA. In kind it is cell-based. On the procedure: as §1
Test [7] deals with PANC-1. As to the kind of experiment: Colony formation assay (CFA). In kind it is cell-based. The note with it: Homo sapiens; PANC-1, 24 hours exposure, colonies after 14-21 days; read-out: (−)-trans IC50 CFA. On the procedure: as §1

The IC50 is the concentration needed to halve the response being measured.

As for `O=C1NC(=O)C(c2cn3c4c(cccc24)CCC3)C1c1c[nH]c2ccccc12` (single isomer, unassigned; (-)), in test [1], the “apoptosis evidenced by Annexin V staining” value is recorded as “induced cells to undergo apoptosis”. Besides, the “cells that co-stain with both Annexin V and propidium iodide” value in test [1] is given as 10-20%. Further, the IC50 in test [2] was 620 nM; in test [3] it was approximately 500 nM; in test [4] it was 200 nM; in test [5] it was 4000 nM; in test [6], 400 nM; in test [7] it was 500 nM.

The values are drawn from patent publication US7713969B2, “Compositions and methods for treatment of cancer” (ArQule, Inc., priority 2005, dated 2010).
